Test results from patent US7146204B2, “Method and apparatus for quantitatively evaluating a kidney” (Yeda Research and Development Co., Ltd., priority 2002, dated 2006).
“Also recorded” adds a separate entry of the source.

Assays:
[1] = test system: rat kidney; test: dynamic 23Na MRI of renal sodium distribution after bolus injection of diuretic; format: in vivo; details: for characteristic time constant of sodium decay in the inner medulla: dynamic 23Na MRI after bolus injection, fitted to Equation 1, n=7; for decrease in sodium level in the inner medulla: relative to pre-treatment, diuresis steady state level, n=7
Method: Materials and Methods—Animals: Studies were performed on female Lewis rats, 2–4 months old and weighing 250–300 g, that had free access to food and water. […] All animal protocols and maintenance procedures were in accordance with the guidelines of the Committee on Animals of the Weizmann Institute of Science, and were approved by this Committee. […] Only one diuretic was injected into each rat. […] Image analysis: Analysis of the kidney images was performed on selected regions of interest (ROIs) in the outer, median and inner parts of the kidney, representing the cortex, outer and inner medulla, respectively. The ROIs were defined on the corresponding coronal proton image recorded prior to the sodium images, at the same spatial resolution. The average digitized pixel intensity for each ROI was measured, and the sodium gradient was assessed by averaging the ratio of the sodium signal intensity between the inner and the outer medulla, and between the inner medulla and the cortex. […] In this analysis, the signal intensity in each pixel was measured from the cortex to the inner medulla along the corticomedullary axis. This yielded a graph of pixel signal intensity versus the distance of the pixel from the cortex. In the dynamic study, the average signal intensities of the inner medulla and the cortex ROIs, defined on the proton image, were measured in sodium images recorded sequentially and were then plotted against time. Statistical analysis to evaluate differences between pixels or ROIs in the same kidney, or before and after diuretic treatment, were performed by a two-tailed paired Student's t-test; otherwise, the unpaired version of this test was used. Results are presented as mean±SEM.

[2] = test system: rat kidney; test: steady state diuresis 23Na MRI of corticomedullary sodium gradient; format: in vivo; details: for reduction in sodium content in the inner medulla (summary statement): after bolus injection; for change of the cortical-outer medullar sodium gradient versus control / cortical-outer medullar sodium gradient (slope): pixel-by-pixel analysis
Method: Materials and Methods—Animals: Studies were performed on female Lewis rats, 2–4 months old and weighing 250–300 g, that had free access to food and water. Before MRI scanning, the rats were anesthetized by an intraperitoneal injection of sodium pentobarbital at a dosage of 0.04 mg/g body wt. All animal protocols and maintenance procedures were in accordance with the guidelines of the Committee on Animals of the Weizmann Institute of Science, and were approved by this Committee.
(§1) Mannitol solution (20%, 1 ml) and saline solution (0.9% NaCl, 1 ml) were injected as a bolus into the tail vein. Only one diuretic was injected into each rat.
In vivo MRI: ^1H and ^23Na spectra and images were recorded at 200 and 53 MHz, respectively with a 4.7 T Biospec spectrometer (Bruker, Rheinstetten, Germany) using a home-built 3 cm double-tuned surface coil. The rat was placed on the coil in a supine position, keeping the estimated kidney position approximately in the middle of the coil. 3D ^1H gradient echo images were recorded to localize the exact kidney position, using TE/TR of 6/30 ms FOV of 12×12×3.2 cm and a matrix of 256×256×32. For defining the regions of interest (ROI), 3D ^1H images were recorded with the same spatial resolution as that of the sodium images.
In the “steady state” studies, sodium images were recorded prior to injection of the diuretic (control measurement) and fifteen minutes after its injection. 3D ^23Na gradient echo images were recorded using a TE/TR of 3.1/60 ms and a 90° OSIRREAD adiabatic pulse, FOV of 12×12×8 cm, and a matrix of 128×128×16 with 10 or 20 scans (20 or 40 min, respectively).
Image analysis: Analysis of the kidney images was performed on selected regions of interest (ROIs) in the outer, median and inner parts of the kidney, representing the cortex, outer and inner medulla, respectively. The ROIs were defined on the corresponding coronal proton image recorded prior to the sodium images, at the same spatial resolution. The average digitized pixel intensity for each ROI was measured, and the sodium gradient was assessed by averaging the ratio of the sodium signal intensity between the inner and the outer medulla, and between the inner medulla and the cortex.
In addition, a pixel-by-pixel analysis was performed, in order to assess the behavior of the NMR sodium signal along the corticomedullary axis. In this analysis, the signal intensity in each pixel was measured from the cortex to the inner medulla along the corticomedullary axis. This yielded a graph of pixel signal intensity versus the distance of the pixel from the cortex. In the dynamic study, the average signal intensities of the inner medulla and the cortex ROIs, defined on the proton image, were measured in sodium images recorded sequentially and were then plotted against time.
Statistical analysis to evaluate differences between pixels or ROIs in the same kidney, or before and after diuretic treatment, were performed by a two-tailed paired Student's t-test; otherwise, the unpaired version of this test was used. Results are presented as mean±SEM.
In-vivo MRI: ^1H and ^23Na images and spectra were recorded at 200 and 53 MHz respectively with a 4.7 T Biospec spectrometer (Bruker, Karlsrhue, Germany) using a home built 3-cm, ^1H and ^23Na tuned surface coil. The rat was placed on the coil in a supine position with the kidney positioned in the middle of the coil. Axial and coronal 3D ^1H gradient echo images were recorded for localization of the kidney using an echo time/repetition time (TE/TR) of 6/30 ms FOV of 12×12×3.2 cm and matrix of 256×256×32. 3D gradient echo ^23Na images were recorded using (TE/TR) of 1.7/60 ms and a 90° OSIRREAD adiabatic pulse, field of view (FOV) of 12×12×8 […], and matrix of 128×128×16, with 20 scans (40 min).
The sodium image was analyzed by a pixel by pixel analysis that was performed in order to assess the behavior of the NMR sodium signal along the corticomedullary axis.

[3] = urine sodium concentration by 23Na NMR spectroscopy; format: in vivo, rat; details: urine collected from 15 min after injection, n=3
Method: as §1
Urine sodium: Urine samples of untreated (control) and diuretic rats were collected in a metabolic cage. Collection of the urine from the diuretic rats started 15 minutes after injection of the diuretic, when the urine flow was constant. The urine samples were then centrifuged, and the supernatants transferred to a 5 mm NMR tube placed in the center of a 10 mm NMR tube. The external tube was used as an external reference, and contained a solution of 120 mM NaCl and 5 mM of the shift reagent: thulium (III) 1,4,7,10-tetraacyclododecane-1,4,7,10-tetrakis (methylene phosphonate) (TmDOTP^5−) (Macrocyclics, Dallas, Tex., USA) reaching total [Na^+] of 150 mM. ^23Na NMR spectra were recorded with a Bruker DMX-400 spectrometer (Bruker, Rheinstetten, Germany), using a multinuclei broad band probe at 106 MHz by acquiring 10 transients with 90° pulses, pulse-to-acquisition time of delay (DE) of 6 μs, 0.47 sec repetition time (TR) and 0.27 sec acquisition time. Analysis of the ^23Na spectra was performed with an XWIN-NMR Bruker software package. Sodium concentration in the urine was calculated from the integrated area of its signal referenced to the integrated area of the shifted signal of the sodium in the external tube solution (150 mM).

[4] = test system: rat kidney; test: steady state diuresis 23Na MRI of corticomedullary sodium gradient; format: in vivo; details: mannitol (1 ml, 0.1N), n=7
[5] = steady state diuresis, furosemide 10 mg/kg body wt, n=7

NS(=O)(=O)c1cc(C(=O)O)c(NCc2ccco2)cc1Cl [furosemide]
characteristic time constant of sodium decay in the inner medulla [1]: 6.1 ± 0.8 min | decrease in sodium level in the inner medulla ([1]; dynamic study): 44±6% | reduction in sodium content in the inner medulla (summary statement) ([2]; diuretic steady state): 50% | change of the cortical-outer medullar sodium gradient versus control ([2]; diuresis steady state): five-fold reduction | cortical-outer medullar sodium gradient (slope) ([2]; diuresis steady state, n=7): 0.10±0.01 a.u.×mm^−1 | cortico-outer medullar sodium gradient during furosemide diuresis ([2]; furosemide steady state diuresis, 10 mg/kg wt, n=7): 0.10±0.01 a.u×mm^−1 | effect on the corticomedullary sodium gradient ([2]; steady state diuresis): almost completely cancelled; also recorded: almost complete cancellation | decrease in sodium signal intensity in the inner medulla ([2]; steady state diuresis, furosemide 1 mg/kg body weight, n=3): 10±2% | decrease in sodium signal intensity in the inner medulla ([2]; steady state diuresis, furosemide 7 mg/kg body weight, n=4): 40±4% | decrease of average sodium signal intensity in the inner medulla [2, 5]: 47±5% | decrease of average sodium signal intensity in the outer medulla [2, 5]: 6±2% | increase of average sodium signal intensity in the cortex [2, 5]: 25%±3% | increase of urine sodium concentration compared to the control [3]: 50±5%

OC[C@@H](O)[C@@H](O)[C@H](O)[C@H](O)CO [mannitol]
characteristic time constant of sodium decay in the inner medulla [1]: 2.5 ± 0.4 min | total increase in sodium concentration in the cortex ([1]; dynamic study, after bolus injection): about 25% | rate of sodium reduction in the inner medulla relative to furosemide ([1]; dynamic study, p=0.002): twice as rapidly; also recorded: more than twofold faster; also recorded: twofold faster decay | decrease in sodium level in the inner medulla ([1]; dynamic study): 52±5% | reduction in sodium content in the inner medulla (summary statement) ([2]; diuretic steady state): 50% | cortex to outer medulla sodium gradient relative to furosemide induced diuresis ([2]; diuresis steady state): fivefold higher | change of the cortical-outer medullar sodium gradient versus control ([2]; diuresis steady state): remained similar to that seen in control kidney | cortical-outer medullar sodium gradient (slope) ([2]; diuresis steady state, n=7): 0.45±0.12 a.u.×mm^−1 | change of the cortical-outer medullar sodium gradient versus control ([2]; diuresis steady state, listed as Mannitol): did not affect | sodium concentration in the outer medulla compared to control ([2]; diuretic steady state): increased compared to control | effect on the corticomedullary sodium gradient ([2]; steady state diuresis): marked breakdown | decrease of urine sodium concentration compared to the control [3]: 49±3% | decrease of sodium concentration in the inner medulla [4]: 52±1% | increase of sodium signal intensity in the cortex [4]: 20±2% | increase of sodium signal intensity in the outer medulla [4]: 13±1%
